The source of these data is patent US9399635B2, “Pyrazole derivative” (GREEN TECH CO., LTD., priority 2011, dated 2016).

In data set [1] the target is recombinant three-repeat microtubule-binding domain (3R-MBD) of tau protein (Homo sapiens, UniProt P10636). Put plainly: Determination of tau aggregation inhibitory activity (heparin-induced, thioflavin T fluorescence; electron microscope). It is filed as biochemical. The settings on record: for IC50: 3R-MBD tau 10 μM, heparin 10 μM, 37° C. for 16 hours, thioflavin T, read-out: IC50 (μM) Test example 1 (tau aggregation inhibitory activity). As to the method:
Pharmacological Test Example 1: Determination of Tau Aggregation Inhibitory Activity
A recombinant three-repeat microtubule-binding domain (3R-MBD) of tau protein was expressed in E. coli and was purified and used for the experiment. The purified tau solution was diluted with a 50 mM Tris-HCl buffer (pH 7.6) to a final concentration of 10 μM. The test compounds were prepared using dimethylsulfoxide (DMSO) at 20-fold of their final concentrations and added to the plate so that the DMSO concentration would be 5%. Heparin was added to the plate so that the final concentration would be 10 μM and the plate was left to stand at 37° C. for 16 hours. Thioflavin T was added to the plate so that the concentration would be 10 μM and the fluorescence intensity was measured with a fluorescence plate reader (PerkinElmer, Inc.) (excitation wavelength: 440 nm; emission wavelength: 480 nm).
(§1) The final concentration of each compound at the time of measurement was set at 0.1, 0.3, 1, 3, and 10 μM. The sample to which only DMSO was added was used as a negative control and its fluorescence intensity was taken as 0% inhibitory activity.
The samples were placed on a grid and washed with distilled water. A 1 mM phosphotungstic acid aqueous solution was added to the samples. The samples were washed, dried overnight, and observed.

In data set [2] the target is T1, recombinant human β-secretase (Homo sapiens, UniProt P56817).
T1 construct: purchased Invitrogen
Put plainly: Determination of β-secretase inhibitory activity (BACE-1 FRET assay Kit). The format is biochemical. The settings on record: for IC50: recombinant human β-secretase, fluorescent substrate peptide, 1 hour, read-out: IC50 (μM) Test example 2 (β-secretase inhibitory activity). The protocol:
Pharmacological Test Example 2: Determination of β-Secretase Inhibitory Activity
The β-secretase inhibitory activity was measured with BACE-1 FRET assay Kit (Invitrogen). The test compounds were prepared using DMSO at 30-fold of their final concentrations and dissolved so that the DMSO concentration would be 10%. To each of the solutions, an equal volume of a recombinant human β-secretase (1 U/mL) dissolved in the assay buffer and an equal volume of fluorescent substrate peptide (2.5 nM) were added and the solutions were left to stand for 1 hour. The fluorescence intensity was measured with a fluorescence plate reader (excitation wavelength: 545 nm; emission wavelength: 590 nm).
The final concentration of each compound at the time of measurement was set at 0.1, 0.3, 1, 3, and 10 μM, at 0.3, 1, 3, 10, and 30 μM, or at 1, 3, 10, 30, and 100 μM.

The target of another data set is T2, Aβ 1-42 (Homo sapiens, UniProt P05067).
T2 construct: Aβ 1-42 (Peptide Institute, Inc.) was dissolved in 0.3% ammonia water; purchased Peptide Institute, Inc
The experiment in a line: Determination of Aβ aggregation inhibitory activity (thioflavin T fluorescence). The format is biochemical. The settings on record: Aβ 1-42, 37° C. for 24 hours, thioflavin T; read-out: IC50 (μM) Test example 3 (Aβ aggregation inhibitory activity). As to the method: Pharmacological test example 3: Determination of Aβ aggregation inhibitory activity
Aβ 1-42 (Peptide Institute, Inc.) was dissolved in 0.3% ammonia water so that the concentration would be 0.5 mM and then diluted with PBS to 20 μM. The test compounds were prepared using DMSO at 100-fold of their final concentrations and adjusted so that the DMSO concentration would be 2%. The Aβ solution and each of the test compound solutions were mixed at an equivalent ratio and the mixtures were incubated at 37° C. for 24 hours. To each of the mixtures, an equal volume of a thioflavin T solution adjusted with a 100 mM Tris-glycine buffer (pH 8.5) to 6 μM was added. The fluorescence intensity was measured with a fluorescence plate reader (excitation wavelength: 440 nm; emission wavelength: 480 nm).
as §1

Some results are limits rather than exact numbers.

Sequence of recombinant three-repeat microtubule-binding domain (3R-MBD) of tau protein (P10636 186-279 isoform P10636-2 limits assumed): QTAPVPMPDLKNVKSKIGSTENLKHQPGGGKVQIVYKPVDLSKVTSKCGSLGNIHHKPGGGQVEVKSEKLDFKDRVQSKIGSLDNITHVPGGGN
T2 sequence (P05067 672-713): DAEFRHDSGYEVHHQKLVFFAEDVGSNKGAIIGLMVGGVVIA
T1 sequence (P56817 46-501): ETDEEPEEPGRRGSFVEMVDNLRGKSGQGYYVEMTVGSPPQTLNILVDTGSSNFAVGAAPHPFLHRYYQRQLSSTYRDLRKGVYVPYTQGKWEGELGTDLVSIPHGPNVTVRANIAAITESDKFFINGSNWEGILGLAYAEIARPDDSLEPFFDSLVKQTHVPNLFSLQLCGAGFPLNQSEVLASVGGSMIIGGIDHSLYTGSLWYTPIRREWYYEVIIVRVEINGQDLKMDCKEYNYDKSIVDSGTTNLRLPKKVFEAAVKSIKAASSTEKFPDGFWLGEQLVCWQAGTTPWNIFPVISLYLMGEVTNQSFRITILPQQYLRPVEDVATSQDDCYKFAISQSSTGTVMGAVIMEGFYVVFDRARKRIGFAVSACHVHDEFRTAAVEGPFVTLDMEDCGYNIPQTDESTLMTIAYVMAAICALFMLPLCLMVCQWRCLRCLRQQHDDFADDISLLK

Usually IC50 stands for the concentration that inhibits the measured activity by half. As usually defined, the melting point is the temperature of the solid-liquid transition. In turn, `COc1cc(OCC2CCCO2)ccc1/C=C/c1cc(/C=C/c2ccc3cc[nH]c3c2)[nH]n1` (centres unmarked) [Example 1, 3-[(1E)-2-(1H-indol-6-yl)ethenyl]-5-[(1E)-2-[2-methoxy-4-(2-tetrahydrofuranylmethoxy)phenyl]ethenyl]-1H-pyrazole] returned a melting point of 218 to 220 °C. Also, the IC50 in data set [1] was 1.49 µM. Also, in data set [2], the IC50 was 2.85 µM. The IC50 at Aβ 1-42 came to 3 µM.
In turn, `Oc1cc(OCc2ccccn2)ccc1/C=C/c1cc(/C=C/c2ccc3cc[nH]c3c2)[nH]n1` [Example 3, 3-[(1E)-2-(1H-indol-6-yl)ethenyl]-5-[(1E)-2-[2-hydroxy-4-(2-pyridylmethoxy)phenyl]ethenyl]-1H-pyrazole] registered a melting point of 202.5 to 203.5 °C. In data set [2], the IC50 stood at 2.9 µM. The IC50 at Aβ 1-42 was 1.6 µM.
Consider `COc1cc(OCCN2CCOCC2)ccc1/C=C/c1cc(/C=C/c2ccc3cc[nH]c3c2)[nH]n1` [Example 27, 3-[(1E)-2-(1H-indol-6-yl)ethenyl]-5-[(1E)-2-[2-methoxy-4-(2-morpholinoethoxy)phenyl]ethenyl]-1H-pyrazole], for which the melting point is 113 to 122 °C. Further, in data set [1], the IC50 came to 1.28 µM. In addition, the IC50 in data set [2] came to 1.04 µM. Also, the IC50 on Aβ 1-42 was determined as 7.53 µM.
`COc1cc(OCc2ccccn2)ccc1/C=C/c1cc(/C=C/c2ccc3[nH]cnc3c2)[nH]n1` [Example 31, 3-[(1E)-2-(1H-benzimidazol-5-yl)ethenyl]-5-[(1E)-2-[2-methoxy-4-(2-pyridylmethoxy)phenyl]ethenyl]-1H-pyrazole]: the melting point was in the range of 135 to 142 °C. In data set [1], the IC50 stood at 1.57 µM. For the same molecule, the IC50 in data set [2] stood at 0.69 µM. For the same molecule, on Aβ 1-42, the 50% inhibitory concentration (IC50) amounted to 6.88 µM.
As to `COc1cc(OCc2ccccn2)ccc1/C=C/c1cc(/C=C/c2ccc3ccn(C)c3c2)[nH]n1` [Example 35, 3-[(1E)-2-[2-methoxy-4-(2-pyridylmethoxy)phenyl]ethenyl]-5-[(1E)-2-(1-methyl-1H-indol-6-yl)ethenyl]-1H-pyrazole], the melting point was in the range of 172 to 174 °C. The concentration for half-maximal inhibition (IC50) on Aβ 1-42 was determined as 0.91 µM.
In turn, `COc1cc(OCc2ccccn2)ccc1/C=C/c1cc(/C=C/c2cc3ccccc3[nH]2)[nH]n1` [Example 36, 3-[(1E)-2-(1H-indol-2-yl)ethenyl]-5-[(1E)-2-[2-methoxy-4-(2-pyridylmethoxy)phenyl]ethenyl]-1H-pyrazole] yielded a melting point of 150.8 to 151.6 °C. Moreover, the half-maximal inhibitory concentration (IC50) at Aβ 1-42 was 2.9 µM.
`CCN(CC)c1ccc(/C=C/c2cc(/C=C/c3ccc4cc[nH]c4c3)[nH]n2)c(OCc2ccccc2)c1` [Example 37, 3-[(1E)-2-(2-benzyloxy-4-diethylaminophenyl)ethenyl]-5-[(1E)-2-(1H-indol-6-yl)ethenyl]-1H-pyrazole]: the melting point lay within 78.1 to 80 °C. Further, the IC50 at Aβ 1-42 stood at 0.4 µM.
`COc1ccc([N+](=O)[O-])c(/C=C/c2cc(/C=C/c3ccc4cc[nH]c4c3)[nH]n2)c1` [Example 58, 3-[(1E)-2-(1H-indol-6-yl)ethenyl]-5-[(1E)-2-(5-methoxy-2-nitrophenyl)ethenyl]-1H-pyrazole]: the melting point was 104 to 109 °C. Moreover, the IC50 in data set [1] was determined as 3.84 µM. Also, in data set [2], the IC50 is 1.11 µM. Also, the IC50 at Aβ 1-42 was 2.17 µM.
`COc1cc(OCc2ccccc2)ccc1/C=C/c1cc(/C=C/c2ccc3cc[nH]c3c2)[nH]n1` [Example 63, 3-[(1E)-2-(4-benzyloxy-2-methoxyphenyl)ethenyl]-5-[(1E)-2-(1H-indol-6-yl)ethenyl]-1H-pyrazole]: the melting point lay in the range of 86 to 91 °C. In addition, the half-inhibitory concentration (IC50) in data set [1] turned out to be 1.37 µM. Besides, in data set [2], the IC50 worked out at 4.39 µM. Besides, at Aβ 1-42, the IC50 was more than 10 µM.
As to `CN1CCCN(c2ccc(/C=C/c3cc(/C=C/c4ccc5cc[nH]c5c4)[nH]n3)c(Br)c2)CC1` [Example 72, 3-[(1E)-2-[2-bromo-4-(4-methyl-1,4-diazepan-1-yl)phenyl]ethenyl]-5-[(1E)-2-(1H-indol-6-yl)ethenyl]-1H-pyrazole], the melting point was in the range of 132 to 136 °C. Besides, in data set [1], the IC50 was 1.46 µM. Also, the IC50 in data set [2] was 0.22 µM. Moreover, the IC50 on Aβ 1-42 is 2.45 µM.
Molecule `COc1cc(OCc2ccccn2)ccc1/C=C/c1cc(/C=C/c2ccc3c(c2)OCO3)[nH]n1` [Example 77, 3-[(1E)-2-(1,3-benzodioxol-5-yl)ethenyl]-5-[(1E)-2-[2-methoxy-4-(2-pyridylmethoxy)phenyl]ethenyl]-1H-pyrazole] came in with a melting point of 218 to 220 °C. Moreover, in data set [1], the IC50 came out at 1.26 µM. Moreover, the IC50 in data set [2] came out at 13.7 µM. At Aβ 1-42, the IC50 was more than 10 µM.
The matching figures for `COc1cc(OCc2nccs2)ccc1/C=C/c1cc(/C=C/c2ccc3cc[nH]c3c2)[nH]n1` [Example 82, 3-[(1E)-2-(1H-indol-6-yl)ethenyl]-5-[(1E)-2-[2-methoxy-4-(1,3-thiazol-2-ylmethoxy)phenyl]ethenyl]-1H-pyrazole]: 229 to 237 °C, 1.04 µM, 3.99 µM and 4.43 µM.
The matching figures for `COc1cc(OCc2ccccn2)ccc1/C=C/c1cc(/C=C/c2ccc3c(c2)OCCO3)[nH]n1` [Example 83, 3-[(1E)-2-(1,4-benzodioxan-6-yl)ethenyl]-5-[(1E)-2-[2-methoxy-4-(2-pyridylmethoxy)phenyl]ethenyl]-1H-pyrazole]: 153 to 155 °C, 0.85 µM, 22.7 µM and more than 10 µM.
Take `CCN(CC)c1ccc(/C=C/c2cc(/C=C/c3ccc4cc[nH]c4c3)[nH]n2)c(OCCN2CCOCC2)c1` [Example 98, 3-[(1E)-2-[4-diethylamino-2-(2-morpholinoethoxy)phenyl]ethenyl]-5-[(1E)-2-(1H-indol-6-yl)ethenyl]-1H-pyrazole]: the melting point fell in the range of 96 to 99 °C. Also, the half-maximal inhibitory concentration (IC50) in data set [1] is 1.29 µM. Moreover, the IC50 in data set [2] stood at 1.25 µM. For the same molecule, the IC50 at Aβ 1-42 is 3.27 µM.
`CCN(CC)c1ccc(/C=C/c2cc(/C=C/c3ccc4cc[nH]c4c3)[nH]n2)c(OC)c1` [Example 104, 3-[(1E)-2-(4-diethylamino-2-methoxyphenyl)ethenyl]-5-[(1E)-2-(1H-indol-6-yl)ethenyl]-1H-pyrazole]: the melting point lay within 104 to 108 °C.
For `CN(C)c1ccc(/C=C/c2cc(/C=C/c3ccc4cc[nH]c4c3)[nH]n2)cc1` [Example 105, 3-[(1E)-2-(4-dimethylaminophenyl)ethenyl]-5-[(1E)-2-(1H-indol-6-yl)ethenyl]-1H-pyrazole], the melting point is 224 to 227 °C.
`CCN(CC)c1ccc(/C=C/c2cc(/C=C/c3ccc4cc[nH]c4c3)[nH]n2)cc1` [Example 106, 3-[(1E)-2-(4-diethylaminophenyl)ethenyl]-5-[(1E)-2-(1H-indol-6-yl)ethenyl]-1H-pyrazole] gave a melting point of 201 to 204 °C.
Take `C(=C\c1cc(/C=C/c2ccc3cc[nH]c3c2)[nH]n1)/c1ccc(N2CCCCC2)cc1` [Example 107, 5-[(1E)-2-(1H-indol-6-yl)ethenyl]-3-[(1E)-2-[4-(1-piperidinyl)phenyl]ethenyl]-1H-pyrazole]: the melting point was 189 to 191 °C.
The inhibition is the relative decrease from the control value, in per cent. In the case of `COc1cc(OCc2ccccn2)ccc1/C=C/c1cc(/C=C/c2ccccc2)[nH]n1` [Example 109, 3-[(1E)-2-[2-methoxy-4-(2-pyridylmethoxy)phenyl]ethenyl]-5-[(1E)-2-phenylethenyl]-1H-pyrazole], the melting point was in the range of 143 to 146 °C. Besides, in data set [1] (compound at 1 μM), the “tau aggregation inhibitory activity at 1 μM” value worked out at 0%. The inhibition at 1 µM in data set [2] (compound at 1 μM) worked out at 12%.
